“Also recorded” adds a separate entry of the source.
What was measured:
TNF-α mRNA [1] = test: TNF-α mRNA expression (RT-PCR) in murine MIN6 pancreatic beta cells; type: cell-based; settings: 25 mM glucose, 72 h (FIG. 11 right)
Procedure: FIG. 11. […] MIN6 cells were cultured in 25 mM glucose with C1 at uM concentrations for 72 h. Total RNA was prepared. RT-PCR was performed. Data shown are the mean+SEM from triplicates. Statistical analysis was performed for each column vs. HG DMSO using one-way ANOVA: *<0.0001.
(§1) RNA extraction and quantitative RT-PCR. RNA was extracted using the Direct-zol™ RNA MiniPrep Plus (Zymo Research). Reverse transcription of RNA samples into cDNA was performed using the GeneAmp RNA PCR Kit (Applied Biosystems), dNTP (from Roche Applied Science), Rnase inhibitor, MULV Reverse Transcriptase and Random hexamers reagent (all from Invitrogen). Diluted cDNA was quantified using real-time PCR performed with Power SYBR Green qPCR MasterMix (Applied Biosystem) and 7500 real-time PCR system (Applied Biosystems). The HPRT1 gene was used as an internal control.

TNF-α mRNA [2] = test: TNF-α mRNA expression (RT-PCR) in human 1.1B4 pancreatic β cells; type: cell-based; settings: 1.1B4 β cells, 25 mM glucose, 72 h (FIG. 12 right)
Procedure: FIG. 12. […] Human 1.1B4 β cells were cultured in 25 mM glucose with C1 (uM) for 72 h. Total RNA was prepared. RT-PCR was performed. Data shown are the mean+SEM from triplicates. Statistical analysis was performed for each column vs. HG DMSO using one-way ANOVA: *<0.0001.
as §1

[3] = Preliminary cell toxicity study in THP1 cells; type: cell-based; settings: human
TNF-α mRNA [4] = test: TNF-α mRNA expression (RT-PCR) in murine RAW macrophages; type: cell-based; settings: RAW cells, 25 mM glucose, 72 h (FIG. 10B)
Procedure: FIGS. 10A-10B. FIG. 10A. […] RAW cells were cultured in 25 mM glucose with C1 (uM) for 72 h. Total RNA was prepared. RT-PCR was performed. Data shown are the mean+SEM from triplicates. Statistical analysis was performed for each column vs. high glucose (HG) DMSO using one-way ANOVA: *<0.0001. FIG. 10B. […] RAW cells were cultured in 25 mM glucose with C1 (uM) for 72 hours. Total RNA was prepared. RT-PCR was performed. Data shown are the mean+SEM from triplicates. Statistical analysis was performed for each column vs. HG DMSO using one-way ANOVA: *<0.0001.
as §1

THP1 cells = test: Differential gene expression analysis by RNA-seq in high glucose treated THP1 cells; type: cell-based, human; settings: THP1, HG 25 mM 72 hr with vs without C1 5 uM
Procedure: FIG. 17. Hierarchical Clustering using differential expressed genes. Differential expression was calculated using these counts with edgeR (5, 6) version 3.0. After correcting for differences in library sizes, a fold change of >1.5 and a p-value of <0.05 were applied to select expressed genes. The corrected measures of the latter were further processed using Cluster3.0 (7) to generate a heatmap using Java TreeView. C=HG treated THP-1 cells (A, B are replicates); T=HG+C1 5 uM (C, D are replicates). […]
RNA-seq: Sequence alignment and gene counts. RNA-Seq reads were trimmed to remove sequencing adapters using Trimmomatic (Bolger et al., 2014), and polyA tails using FASTP (Chen et al., 2018). The processed reads were mapped to the human genome (hg19) using STAR software (v. 020201) (Dobin et al., 2013). […]
Differential gene expression analyses by RNA-seq. […] Differential expression analysis was conducted by adjusting read counts to normalized expression values using the TMM normalization method in edgeR package (Robinson et al., 2010). […] Next, Raw counts for each gene in the GENCODE coding gene annotation (hg19) were measured using HTseq (Anders and Huber, 2010) with an argument of “-r pos -s reserve”. Differential expression was calculated using these counts with edgeR (5, 6) version 3.0. […]

Q: What does the source list for `CC(C)C(C(=O)O)N1C(=O)c2ccncc2C1=O` (centres unmarked) [Compound C1, 2-(1,3-dioxo-1,3-dihydro-2H-pyrrolo[3,4-c]pyridin-2-yl)-3-methylbutanoic acid]?
A: TNF-α mRNA levels (TNF-α mRNA [1]): did not decrease TNF-α levels; TNF-α mRNA expression (TNF-α mRNA [2]): affects TXNIP and TNF-α mRNA expression; also recorded: decreased TNF-α expression; IC50 [3]: 450 µM; TNF-α mRNA expression (TNF-α mRNA [4]): decreased TNF-α mRNA expression; also recorded: inhibited TXNIP and TNF-α mRNA expression; TXNIP and TNF-α expression by RNA-seq (THP1 cells): suppressed TXNIP and TNF-α

From patent publication US11974990B2, “TXNIP-TRX complex inhibitors and methods of using the same” (City of Hope, priority 2018, dated 2024)
